Results on one compound are retold here after patent US11913884B2, “Visible light-activated dyes and methods of use thereof” (William Marsh Rice University, priority 2019, dated 2024).

Series [1] can be described thus: Photoactivation (turn-on) of thio-caged fluorophores in solution by light irradiation. The class given is physicochemical. The source says: To determine whether a minimal one atom sulfur-for-oxygen substitution within fluorophores can lead to fluorescence quenching, thio-caged Nile Red (SNile Red, FIG. 1) was synthesized, in which a carbonyl group was replaced with a thiocarbonyl moiety. Treatment of Nile Red with Lawesson's reagent in refluxing benzene produced the desired SNile Red in a yield of 40%. […] Irradiation of SNile Red with red light (615 nm, 0.4 μW cm-2) led to the regeneration of fluorescent Nile Red in a high yield (FIG. 2A). The absorption maxima of SNile Red at 298, 368 and 652 nm were blue-shifted after desulfuration to 315 and 556 nm, in a good agreement with the absorption spectrum of authentic synthesized Nile Red (FIG. 2B). The A556/A652 value, representing the ratio of the absorbance maxima of Nile Red and SNile Red, increased from 0.25 to 30 after desulfuration reaction (FIG. 2B). Upon irradiation with red light, the fluorescence intensity of the desulfurated material at 626 nm increased 280-fold, accompanied by a change in fluorescence from dark to red (FIG. 2C). To evaluate the proper light source for SNile Red photoactivation, SNile Red was irradiated with either 470 nm, 615 nm, or 850 nm light for different times and fluorescence intensities at 626 nm were recorded. […] To further characterize the photoactivated product of SNile Red, ^1H NMR and ESI-MS spectral changes were measured in the process of photoactivation (FIG. 2A). […] Signals corresponding to phenyl moiety protons at 8.64, 8.62, 7.85, 7.73, 7.36, 7.04, and 6.79 ppm gradually disappeared, and were replaced by new signals appearing at 8.57, 8.13, 7.81, 7.72, 7.63, 6.85, 6.69 and 6.30 ppm, respectively. […] The photoactivated product was also characterized by ESI-mass spectrometric analysis FIG. 3). The observed m/z 319.2 corresponding to Nile Red confirms the photoactivation product of SNile Red is its oxo form. Both dialkylthioketones and diarylthioketones are known to undergo photo-oxidation reaction under oxygen and light to give the corresponding ketones (Coyle, 1985, Corsaro and Pistara, 1998). To investigate the effects of dissolved oxygen and light on the photoactivation of thio-caged fluorophores, the time profile of the fluorescence of SNile Red was measured in the presence or absence of light, or oxygen. […] To study the effect of oxygen during the photoactivation, the inventors prepared an oxygen-free SNile Red solution by bubbling nitrogen gas and irradiated at 615 nm. […] Inspired by the photoactivation mechanism of thioketones, it was hypothesized that singlet oxygen generated by self-sensitization can be the active species to oxidize thiocarbonyl groups within fluorophores (Coyle, 1985 and Corsaro and Pistara, 1998). […] The singlet oxygen quantum yield (DA) was further determined to be 0.36 with considering the absorption correction factor over the 600-630 nm region (Bonacin et al., 2009 and Adarsh et al., 2010) by referring to methylene blue (MB) (ΦΔ,MB=0.57 in dichloromethane; Li et al., 2013).
Encouraged by the excellent photoactivation properties of SNile Red, Lawesson's reagent was employed to introduce thiocarbonyl moieties into several different fluorophores, such as phthalimide (PI), coumarin (Cou) and acridone (ACD), obtaining yields ranging from 20-80% (FIG. 1). Next, characterization of the spectroscopic and photochemical properties of these thiocaged fluorophores and their oxidized products using UV-vis and fluorescence spectroscopies was performed (Table 1). […] Double thiocarbonyl substitution on 4-dimethylaminophthalimide (4-DMAP, FIG. 1) produced an even larger bathochromic shift of 166 nm. […] It was hypothesized that the red-shift and enhanced absorption seen with thiocarbonyl compounds were due to the reduced energy gap between the HOMO-LUMO in these fluorophores. This is consistent with the computational results discussed below. […]

Series [2] can be described thus: Singlet oxygen quantum yield determination with DPBF. The class given is physicochemical. The following applies: DCM, irradiation 615/30 nm, relative to methylene blue. From the text: To determine whether a minimal one atom sulfur-for-oxygen substitution within fluorophores can lead to fluorescence quenching, thio-caged Nile Red (SNile Red, FIG. 1) was synthesized, in which a carbonyl group was replaced with a thiocarbonyl moiety. Treatment of Nile Red with Lawesson's reagent in refluxing benzene produced the desired SNile Red in a yield of 40%. […] Irradiation of SNile Red with red light (615 nm, 0.4 μW cm-2) led to the regeneration of fluorescent Nile Red in a high yield (FIG. 2A). […] The A556/A652 value, representing the ratio of the absorbance maxima of Nile Red and SNile Red, increased from 0.25 to 30 after desulfuration reaction (FIG. 2B). Upon irradiation with red light, the fluorescence intensity of the desulfurated material at 626 nm increased 280-fold, accompanied by a change in fluorescence from dark to red (FIG. 2C). To evaluate the proper light source for SNile Red photoactivation, SNile Red was irradiated with either 470 nm, 615 nm, or 850 nm light for different times and fluorescence intensities at 626 nm were recorded. […] To further characterize the photoactivated product of SNile Red, ^1H NMR and ESI-MS spectral changes were measured in the process of photoactivation (FIG. 2A). […]
Singlet oxygen quantum yields were calculated according to the literature (Bonacin et al., 2009, Adarsh et al., 2010, and Li et al., 2013). […]

Values joined by “and” are separate entries in the source; they are usually repeats but may differ in a detail not shown here. Equal values may be shown once.

In the case of `CCN(CC)c1ccc2nc3c4ccccc4c(=S)cc-3oc2c1` [SNile Red], in series [1] (470 nm or 615 nm light), the “fluorescence change at 626 nm with light of shorter wavelengths than 652 nm” value is recorded as “significant fluorescence enhancement”. Further, the “increase of fluorescence intensity at 626 nm” value in series [1] (615 nm light in air for 20 mins) was determined as 90 fold. Moreover, the “activation by light out of the absorbance range” value in series [1] (850 nm, after 5 hrs) is on record as “negligible activation”. The “Turn-on (x-fold)” value in series [1] (DMSO, footnote e: 470 nm, 0.4 μW cm^−2) is listed as 280^e x-fold. In addition, the A556/A652 value in series [1] (after desulfuration reaction) is recorded as 30; in series [1] (before desulfuration reaction), 0.25. In series [1] (after irradiation with red light (615 nm, 0.4 μW cm-2)), the “absorption maxima after desulfuration” value was 315 nm and 556 nm. The “change of fluorescent spectrum” value in series [1] (in the absence of light) is “no change”. For the same compound, the “change of fluorescence intensity” value in series [1] (oxygen-free solution (nitrogen bubbled), 615 nm, within 20 mins irradiation) is “no significant change”. Further, the “increase of fluorescence intensity at 626 nm (activation ratio)” value in series [1] (upon irradiation with red light) amounted to 280 fold. In series [2], the “singlet oxygen quantum yield” value is listed as 0.36.
